According to publication PMC6271559, “Synthesis and Evaluation of 2,4-Disubstituted Quinazoline Derivatives with Potent Anti-Angiogenesis Activities” (Molecules, 2014):
Where two headings read alike, the source gives them in different places.

Key:
[1] = tested on: CNE-2 (human nasopharyngeal cancer) cells; assay: MTT cytotoxicity assay, CNE-2; format: cell-based; conditions: 48 h, mean of three independent assays
Source text: (§1) In the early 80s, scientists proposed anti-angiogenesis as a potential target in cancer therapy. Much research in the past 30 years has targeted tumor angiogenesis as a means of inhibiting the process of tumor-caused blood vessel formation. Endothelial cells, which come from the inner lining of blood vessels, makes up a fundamental part of new blood vessels as well as pre-existing ones. A complete angiogenesis process includes the proliferation, migration, and differentiation of endothelial cells, so a great deal of angiogenesis inhibitors discovered to date target endothelial cells. We thus employed a cell proliferation assay to evaluate the cytotoxicity of quinazoline derivatives against both normal (HUVEC) and tumor cell lines (CNE-2, PC-3, and SMMC-7721 cell lines) so we can screen some molecules that have cytotoxicity against tumor cells but low cytotoxicity against HUVECs. Meanwhile, an appropriate concentration range of these compounds could be determined to further study their inhibitive effects against the proliferation, migration, and differentiation of HUVECs. The cytotoxic activities of quinazoline derivatives against human tumor cell lines CNE-2 (human nasopharyngeal cancer), PC-3 (human prostatic carcinoma), SMMC-7721 (human liver cancer) and Human Umbilical Vein Endothelial Cells (HUVECs) were determined by using the MTT cytotoxicity assay.
(§2) HUVEC, CNE-2, PC-3, and 7721 cell lines were seeded on 96-well plates at a concentration of 5,000 cells per well and exposed to various concentrations of quinazoline derivatives. After 48 h of treatment at 37 °C in a humidified atmosphere of 5% CO2, 5 mg/mL MTT solution (10 μL) was added to each well and further incubated for 4 h. Each well was then added dimethyl sulfoxide (DMSO, 100 μL), and the optical density (OD) was recorded at 490 nm. All measurements were done in triplicate, and the IC50 values were derived from the mean OD values of the triplicate tests versus drug concentration curves.

[2] = tested on: PC-3 (human prostatic carcinoma) cells; assay: MTT cytotoxicity assay, PC-3; format: cell-based; conditions: Prostatic carcinoma cell, 48 h, mean of three independent assays
Source text: as §1, §2

[3] = tested on: SMMC-7721 (human liver cancer) cells; assay: MTT cytotoxicity assay, SMMC-7721; format: cell-based; conditions: 48 h, mean of three independent assays
Source text: as §1, §2

[4] = MTT cytotoxicity assay, HUVEC; format: cell-based; conditions: human, HUVEC (human umbilical vein endothelial cells), mean of three independent assays
Source text: as §1, §2

[5] = tested on: HUVEC adhesion to collagen; assay: HUVEC adhesion assay on type I collagen; format: cell-based, human; conditions: Homo sapiens, HUVEC, adhesion of HUVEC on collagen, 37 °C
Source text: A perfect angiogenesis inhibitor must be show lower toxicity toward HUVECs, while showing high inhibitive capability towards the proliferation, migration, and differentiation of HUVECs. To assess the inhibitory effects of 2,4-disubstituted quinazoline derivatives, three assays were used: HUVEC adhesion assay, HUVEC migration assay and CAM assay. Firstly, to test the inhibitory effects of quinazoline derivatives on the attachment of endothelial cells to type I collagen, cell adhesion assays were carried out.
Cell adhesion assay was carried out by a reported method with slight modification. Wells of a 96-well plate were coated at room temperature overnight with rat trail tendon collagen type I (2 μg) in PBS in a final volume of 100 μL. The wells were washed three times with PBS ([…]) and then blocked with 0.2% bovine serum albumin (BSA) in PBS ([…]) for 2 h at 37 °C in a cell culture incubator. The wells were then washed three times with PBS ([…]). HUEVCs were detached from the dish, resuspended in DMEM, and added (50 μL, 10^4 cells/mL) to each well followed by the related compounds (50 μL) at various concentrations. The plates were incubated for 1 h or 3 h at 37 °C and then washed three times with PBS (100 μL). The attached cells were fixed and stained with 0.2 % crystal violet in 20% methanol for 10 min, then washed three times with PBS ([…]). The cells were solubilized by 2% SDS and the OD was measured at 570 nm. Attachment was determined by both 1 and 3 h as described above. Each compound was tested in triplicate and each experiment was repeated three times.

HUVEC migration = HUVEC migration (wounding) assay; format: cell-based, human; conditions: 15 μM and 30 μM, 24 h
Description: Compounds were tested at concentrations of both 15 μM and 30 μM, and all seven compounds tested in this assay could inhibit HUVEC migration.
The HUVEC cell line was seeded on a pre-treated 48-well culture plate at a concentration of 2 × 10^4 cells per well in a volume of 200 μL, and a portion of the cell monolayer was scraped off with a sterile disposable rubber policeman. After the DMEM medium was removed, the cells in each well were then washed three times with PBS (phosphate-buffer saline), and fresh medium was added to each well. The wells were then tested after incubation for 24 h with or without quinazoline derivatives at various concentrations. Two random pictures were taken for each wound using a microscope. The area of the migrations was measured using Photoshop CS3. All measurements were done in triplicate, and the experiments were done at least three times.

[6] = tested on: chick embryo chorioallantoic membrane (CAM); assay: CAM angiogenesis assay; format: in vivo; conditions: 30 μg/10 μL on filter disc, 48 h
Description: CAMs treated with 0.9% NaCl solution (negative control) were surrounded by all antoic vessels as newly-formed capillaries converging radially toward the sponge in a “spoked wheel” pattern (number of vessels 24 ± 3).
The in vivo CAM angiogenesis model as initially described by Folkman and then modified by Maragoudakis was used. Fertilized chicken eggs were used after incubating them for 8 days. A 1 cm × 1 cm window was made in the shell to create a pocket to expose the CAM. A filter disc with 0.9% NaCl solution or 30 μg/10 μL of compounds was then placed upon the CAM from 10 eggs per treatment and 48 h later, the CAMs were fixed with 4% paraformaldehyde and the vessel number from three random fields around the filter disc were pictured using a microscope.

melting point: 167 to 168 °C
Compound: CN(C)CCCNc1nc(-c2ccccc2NC(=O)CCN2CCN(C)CC2)nc2ccccc12 [Compound 11d, N-(2-(4-(3-(Dimethylamino)propylamino)quinazolin-2-yl)phenyl)-3-(4-methylpiperazin-1-yl)propane-mide]
IC50 [1]: 9.3 ± 0.2 µM
IC50 [2]: 9.8 ± 0.3 µM
IC50 [3]: 10.9 ± 0.2 µM
IC50 at 48 h [4]: 47.2 ± 0.2 µM
inhibition at 15 µM ([5]; 1 h, 1 h, read-out: 1 h Inhibition Rate % Dose 15 μM): 47.4 ± 0.1%
inhibition at 30 µM ([5]; 1 h, 1 h, read-out: 1 h Inhibition Rate % Dose 30 μM): 65.8 ± 0.2%
inhibition at 15 µM ([5]; 3 h, 3 h, read-out: 3 h Inhibition Rate % Dose 15 μM): 53.3 ± 0.3%
inhibition at 30 µM ([5]; 3 h, 3 h, read-out: 3 h Inhibition Rate % Dose 30 μM): 71.2 ± 0.1%
inhibition of HUVEC migration (HUVEC migration): best inhibitory activity
inhibition of angiogenesis in CAM assay [6]: excellent inhibition of angiogenesis
